Measured values: patent US10072011B2, “Substituted bridged urea analogs as sirtuin modulators” (GlaxoSmithKline Intellectual Property (No.2) Limited, priority 2014, dated 2018)
Like-named read-outs stand apart in the source and are kept apart here.

Biological target: T1, SIRT1 (Homo sapiens, UniProt Q96EB6)
T1 sequence (Q96EB6 1-747): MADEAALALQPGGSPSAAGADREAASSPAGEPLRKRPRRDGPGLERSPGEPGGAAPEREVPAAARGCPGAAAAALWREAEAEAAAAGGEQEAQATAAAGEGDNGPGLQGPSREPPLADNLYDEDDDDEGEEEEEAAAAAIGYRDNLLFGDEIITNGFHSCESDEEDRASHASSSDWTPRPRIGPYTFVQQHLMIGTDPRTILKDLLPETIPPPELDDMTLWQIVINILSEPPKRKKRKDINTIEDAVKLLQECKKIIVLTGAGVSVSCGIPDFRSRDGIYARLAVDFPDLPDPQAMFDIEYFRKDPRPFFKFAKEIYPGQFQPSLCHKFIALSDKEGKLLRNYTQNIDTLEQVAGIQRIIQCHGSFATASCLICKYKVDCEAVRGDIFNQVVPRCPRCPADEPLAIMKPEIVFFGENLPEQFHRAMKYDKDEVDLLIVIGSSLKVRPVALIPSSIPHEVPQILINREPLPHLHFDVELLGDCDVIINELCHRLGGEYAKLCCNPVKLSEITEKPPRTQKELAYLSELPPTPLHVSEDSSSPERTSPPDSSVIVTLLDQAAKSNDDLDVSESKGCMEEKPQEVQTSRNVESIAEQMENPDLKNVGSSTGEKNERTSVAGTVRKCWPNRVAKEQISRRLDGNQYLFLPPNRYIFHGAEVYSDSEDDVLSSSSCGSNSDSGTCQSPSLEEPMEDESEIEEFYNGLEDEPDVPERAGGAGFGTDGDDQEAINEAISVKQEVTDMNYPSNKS
Assay: Trp mass spectrometry assay of SIRT1 activation (Ac-R-H-K-K(Ac)-W-NH2 peptide)
Assay type: biochemical
Settings: for Emax: 25 min, read-out: TRP MAX RESP (percent maximum fold activation)
In short: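 N-terminal His-tagged human SIRT1, expressed in BL21(DE3) and purified, was incubated 25 min with an acetylated Trp peptide and NAD plus test compound at varying concentrations, then quenched with formic acid. OAADPR or deacetylated peptide was quantified by mass spectrometry versus compound-free control; EC1.5 is the concentration giving 50% activity increase, with percent maximum activation.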

[1] = Trp peptide 0.5 μM, 120 μM βNAD+, 10 nM SIRT1, 25 min at 25° C., relative to control (100%)
[2] = Trp peptide 0.5 μM, 120 μM βNAD+, 10 nM SIRT1, 25 min at 25° C.

Emax [1] | TRP Activity (EC1.5, concentration of test compound that results in 150% activation of SIRT1) [2] | SMILES | Emax
> 150% | A (EC1.5<1 μM) | C#CCNC(=O)c1ccc2c(n1)N(C(=O)Nc1ccccn1)[C@H]1CCN2C1 [Example 99, (4S)—N7-(prop-2-yn-1-yl)-N5-(pyridin-2-yl)-3,4-dihydro-1,4-methanopyrido[2,3-b][1,4]diazepine-5,7(2H)-dicarboxamide] | –
> 150% | B (EC1.5 1-25 μM) | C[C@@H](NC(=O)c1ccc2c(n1)N(C(=O)Nc1cc(OCC(=O)O)ccn1)[C@H]1CCN2C1)C(F)(F)F [Example 265, 2-((2-((4S)-7-(((R)-1,1,1-trifluoropropan-2-yl)carbamoyl)-2,3,4,5-tetrahydro-1,4-methanopyrido[2,3-b][1,4]diazepine-5-carboxamido)pyridin-4-yl)oxy)acetic acid] | –
> 150% | B (EC1.5 1-25 μM) | O=C(NCc1nnn[nH]1)c1ccc2c(n1)N(C(=O)Nc1cc(OC[C@H](O)CO)ccn1)[C@H]1CCN2C1 [Example 256, (4S)—N7-((1H-tetrazol-5-yl)methyl)-N5-(4-((R)-2,3-dihydroxypropoxy)pyridin-2-yl)-3,4-dihydro-1,4-methanopyrido[2,3-b][1,4]diazepine-5,7(2H)-dicarboxamide] | –
> 150% | A (EC1.5<1 μM) | Cc1ccnc(NC(=O)N2c3nc(C(=O)N[C@H](C)C(F)(F)F)ccc3N3CC[C@H]2C3)c1 [Example 55, (4S)—N5-(4-methylpyridin-2-yl)-N7-((R)-1,1,1-trifluoropropan-2-yl)-3,4-dihydro-1,4-methanopyrido[2,3-b][1,4]diazepine-5,7(2H)-dicarboxamide] | –
> 150% | B (EC1.5 1-25 μM) | O=C(NC1CC1)c1ccc2c(n1)N(C(=O)Nc1cccnn1)[C@H]1CCN2C1 [Example 229, (4S)—N7-cyclopropyl-N5-(pyridazin-3-yl)-3,4-dihydro-1,4-methanopyrido[2,3-b][1,4]diazepine-5,7(2H)-dicarboxamide] | –
> 150% | B (EC1.5 1-25 μM) | O=C(NC[C@@H]1CCCO1)c1ccc2c(n1)N(C(=O)Nc1ccccn1)[C@H]1CCN2C1 [Example 208, (4S)—N5-(pyridin-2-yl)-N7-(((S)-tetrahydrofuran-2-yl)methyl)-3,4-dihydro-1,4-methanopyrido[2,3-b][1,4]diazepine-5,7(2H)-dicarboxamide] | –
> 150% | A (EC1.5<1 μM) | N#Cc1ccc(NC(=O)N2c3nc(C(=O)NCC(F)(F)F)ccc3N3CC[C@H]2C3)nc1 [Example 158, (4S)—N5-(5-cyanopyridin-2-yl)-N7-(2,2,2-trifluoroethyl)-3,4-dihydro-1,4-methanopyrido[2,3-b][1,4]diazepine-5,7(2H)-dicarboxamide] | –
> 150% | A (EC1.5<1 μM) | O=C(N[C@H](CO)C(F)(F)F)c1ccc2c(n1)N(C(=O)Nc1cc3c(cn1)OCCC3)[C@H]1CCN2C1 [Example 159] | –
> 150% | B (EC1.5 1-25 μM) | O=C(N[C@@H](CO)C(F)(F)F)c1ccc2c(n1)N(C(=O)Nc1cccnc1)[C@H]1CCN2C1 [Example 224, (4S)—N5-(pyridin-3-yl)-N7-((S)-1,1,1-trifluoro-3-hydroxypropan-2-yl)-3,4-dihydro-1,4-methanopyrido[2,3-b][1,4]diazepine-5,7(2H)-dicarboxamide] | –
> 150% | A (EC1.5<1 μM) | O=C(NC1CC1(F)F)c1ccc2c(n1)N(C(=O)Nc1cccnn1)[C@H]1CCN2C1 (single isomer, unassigned) [Example 270] | –
< 150% | A (EC1.5<1 μM) | Cc1ncc(-c2ccnc(NC(=O)N3c4nc(C(=O)NCC(F)(F)F)cc(C)c4N4CC[C@H]3C4)c2)o1 [Example 293, (4S)-9-methyl-N5-(4-(2-methyloxazol-5-yl)pyridin-2-yl)-N7-(2,2,2-trifluoroethyl)-3,4-dihydro-1,4-methanopyrido[2,3-b][1,4]diazepine-5,7(2H)-dicarboxamide] | –
> 150% | B (EC1.5 1-25 μM) | O=C(NC[C@H]1CCCO1)c1ccc2c(n1)N(C(=O)Nc1ccccn1)[C@H]1CCN2C1 [Example 42, (4S)—N5-(pyridin-2-yl)-N7-(((R)-tetrahydrofuran-2-yl)methyl)-3,4-dihydro-1,4-methanopyrido[2,3-b][1,4]diazepine-5,7(2H)-dicarboxamide] | –
> 150% | B (EC1.5 1-25 μM) | O=C(N[C@H]1C[C@H](O)C1)c1ccc2c(n1)N(C(=O)Nc1ccccn1)[C@H]1CCN2C1 (racemic) [Example 210, (4S)—N7-((1r,3S)-3-hydroxycyclobutyl)-N5-(pyridin-2-yl)-3,4-dihydro-1,4-methanopyrido[2,3-b][1,4]diazepine-5,7(2H)-dicarboxamide] | –
> 150% | A (EC1.5<1 μM) | C[C@@H](NC(=O)c1ccc2c(n1)N(C(=O)Nc1cc(-n3ccnn3)ccn1)[C@H]1CCN2C1)C(F)(F)F [Example 182, (4S)—N5-(4-(1H-1,2,3-triazol-1-yl)pyridin-2-yl)-N7-((R)-1,1,1-trifluoropropan-2-yl)-3,4-dihydro-1,4-methanopyrido[2,3-b][1,4]diazepine-5,7(2H)-dicarboxamide] | –
> 150% | A (EC1.5<1 μM) | O=C(NC1CC1(F)F)c1ccc2c(n1)N(C(=O)Nc1ccc(F)cn1)[C@H]1CCN2C1 (single isomer, unassigned) [Example 242] | –
> 150% | B (EC1.5 1-25 μM) | CC(C)(O)CNC(=O)c1ccc2c(n1)N(C(=O)Nc1ccccn1)[C@H]1CCN2C1 [Example 202, (4S)—N7-(2-hydroxy-2-methylpropyl)-N5-(pyridin-2-yl)-3,4-dihydro-1,4-methanopyrido[2,3-b][1, 4] diazepine-5,7(2H)-dicarboxamide] | –
> 150% | A (EC1.5<1 μM) | Cc1ncc(-c2ccnc(NC(=O)N3c4nc(C(=O)NCC(F)(F)F)ccc4N4CC[C@H]3C4)c2)o1 [Example 115, (4S)—N5-(4-(2-methyloxazol-5-yl)pyridin-2-yl)-N7-(2,2,2-trifluoroethyl)-3,4-dihydro-1,4-methanopyrido[2,3-b][1,4]diazepine-5,7(2H)-dicarboxamide] | –
> 150% | A (EC1.5<1 μM) | C[C@@H](NC(=O)c1ccc2c(n1)N(C(=O)Nc1cccc(OC[C@@H](O)CO)n1)[C@H]1CCN2C1)C(F)(F)F [Example 144, (4S)—N5-(6-((S)-2,3-dihydroxypropoxy)pyridin-2-yl)-N7-((R)-1,1,1-trifluoropropan-2-yl)-3,4-dihydro-1,4-methanopyrido[2,3-b][1,4]diazepine-5,7(2H)-dicarboxamide] | –
– | A (EC1.5<1 μM) | CC(NC(=O)c1ccc2c(n1)N(C(=O)Nc1ccccn1)[C@H]1CCN2C1)C1CC1 (single isomer, unassigned) [Example 101] | –
> 150% | B (EC1.5 1-25 μM) | C#CC(C)(C)NC(=O)c1ccc2c(n1)N(C(=O)Nc1ccccn1)[C@H]1CCN2C1 [Example 253, (4S)—N7-(2-methylbut-3-yn-2-yl)-N5-(pyridin-2-yl)-3,4-dihydro-1,4-methanopyrido[2,3-b][1,4]diazepine-5,7(2H)-dicarboxamide] | –
> 150% | B (EC1.5 1-25 μM) | COc1ccnc(NC(=O)N2c3nc(C(=O)N[C@@H]4CC4(F)F)ccc3N3CC[C@H]2C3)c1 (single isomer, unassigned) [Example 274] | –

SMILES | Emax [1] | TRP Activity (EC1.5, concentration of test compound that results in 150% activation of SIRT1) [2] | Emax
Cn1ccc(=O)c(NC(=O)N2c3nc(C(=O)NCC(F)(F)F)ccc3N3CC[C@H]2C3)c1 [Example 185, (4S)—N5-(1-methyl-4-oxo-1,4-dihydropyridin-3-yl)-N7-(2,2,2-trifluoroethyl)-3,4-dihydro-1,4-methanopyrido[2,3-b][1,4]diazepine-5,7(2H)-dicarboxamide] | – | A (EC1.5<1 μM) | > 150%
